Reference: patent US20250152610A1, “IMIDAZOLATE GOLD COMPOUNDS FOR THE TREATMENT OF LUNG CANCER” (University of Cincinnati, priority 2022, published 2025)

Assays:
[1] = tested on: H193 and H1395 KRAS-WT lung cancer cells; settings: for lipid peroxidation (oxidized C11-BODIPY) in KRAS-WT cells: 10 μM, 48 hours, FIG. 5B; for ferroptosis induction in KRAS-WT lung cancer cells (overall conclusion): taken together from Examples 1-4
Method: H157 and A549 KM lung cancer cells and H193 and H1395 KRAS-WT lung cancer cells were treated with vehicle (negative control), DM20 (10 μM), CS47 (10 μM), or auranofin (1 μM positive control) for 48 hours. Cells were then stained with DAP, oxidized C11-BODIPY, and reduced C11-BODIPY. C11-BODIPY is a ferroptosis lipid sensor that switches from red to green fluorescence upon oxidation.

[2] = tested on: H522 KRAS-WT lung cancer cells; experiment: MTT cell viability rescue with ferrostatin-1, L-cysteine or NAC; type: cell-based, human; settings: 48 hours, DM20 10 μM, CS47 10 uM, auranofin 1 μM; for rescue of cell viability by ferrostatin-1 (Fer-1): FIG. 4A; for rescue of cell viability by cysteine: FIG. 4B; for rescue of cell viability by n-acetyl-cysteine (NAC): FIG. 4C
Method: H522 KRAS-WT lung cancer cells were treated with DM20 (10 μM), CS47 (10 uM), or auranofin (1 μM) in combination with ferrostatin-1, L-cysteine, or n-acetyl-cysteine (all mM, 48 hours of treatment, in quadruplicate). Statistics indicate one-way ANOVA followed by Sidak's multiple comparisons analysis with ns, p>0.05; *, p<0.05: **, p<0.01; ***, p<0.001 and ****, p<0.0001.

[3] = tested on: KRAS-WT lung cancer cells (H1395, H522, H661, H1993, H332, H820) versus KM lung cancer cells (H157, H1264, H2122, H460, A549); experiment: MTT cell viability assay on panel of KRAS-WT and KM lung cancer cell lines; type: cell-based, human; settings: 1 nM to 100 μM; FIGS. 3A-3F; unpaired t test
Method: Experiments were carried out to determine whether DM20 and CS47 are reversible TrxR inhibitors capable of triggering ferroptosis in KRAS-WT lung cancer cells. DM20 and CS47 in concentrations ranging from 1 nM to 100 μM were tested on a panel of KM and KRAS-WT cell lines in MTT cell viability assays. The tested KM cell lines included H157, H1264, H2122, H460, and A549 cells. The tested KRAS-WT cell lines included H1395, H522, H661, H1993, H332, and H820. Auranofin was included as a positive drug control and the human lung […] fibroblast cell line IMR90 was included as a normal, non-transformed cell counterpart. MTT viability and IC50 values were determined, results for which are shown in FIGS. 3A-3F, wherein each line or symbol corresponds to a human […] cell line. Statistics indicate unpaired t test with *, p<0.05, and **, p<0.01.

[4] = tested on: GPX4; settings: H522 KRAS-WT and A546 KM cells, 10 μM, 48 hours; FIG. 5A
Method: H522 KRAS-WT lung cancer cells and A546 KM lung cancer cells were treated with vehicle (negative control), DM20 (10 μM), CS47 (10 μM), and auranofin (1 μM, positive control) for 48 hours. Protein lysates were extracted from the cells and Western blot analysis was carried out to detect expression of TXNRD1 and GPX4 in the cell lines after treatment, with GAPDH expression detected as a control.

With `Clc1nc[n]([Au][PH](c2ccccc2)(c2ccccc2)c2ccccc2)c1Cl` [CS47, 4,5-dichloro-imidazolate-1yl-gold(I)-triphenylphosphane] the “lipid peroxidation (oxidized C11-BODIPY) in KRAS-WT cells” value [1] was “induces lipid peroxidation”, the “ferroptosis induction in KRAS-WT lung cancer cells (overall conclusion)” value [1] was “induce ferroptosis” and the “rescue of cell viability by ferrostatin-1 (Fer-1)” value (shortened to “rescue of cell viability … (Fer-1)”) [2] was “can rescue the cell viability”. For the same compound, the “rescue of cell viability by cysteine” value [2] was “can rescue the cell viability”, the “rescue of cell viability by n-acetyl-cysteine (NAC)” value (from here on “rescue of cell viability … (NAC)”) [2] was “can rescue the cell viability” and the “sensitivity of KRAS-WT lung cancer cells compared with KM lung cancer cells (MTT viability, IC50)” value [3] was “significantly and selectively more sensitive”. For the same compound, the “GPX4 expression after treatment (Western blot)” value [4] was “depletes GPX4 expression”.
In the case of `N#Cc1nc[n]([Au][PH](c2ccccc2)(c2ccccc2)c2ccccc2)c1C#N` [DM20, 4,5-dicyano-imidazolate-1yl-gold(I)-triphenylphosphane], the “lipid peroxidation (oxidized C11-BODIPY) in KRAS-WT cells” value [1] is reported as “induces lipid peroxidation”, the “ferroptosis induction in KRAS-WT lung cancer cells (overall conclusion)” value [1] is reported as “induce ferroptosis” and the “rescue of cell viability … (Fer-1)” value [2] is reported as “can rescue the cell viability”. The “rescue of cell viability by cysteine” value [2] was “can rescue the cell viability”, the “rescue of cell viability … (NAC)” value [2] was “can rescue the cell viability” and the “sensitivity of KRAS-WT lung cancer cells compared with KM lung cancer cells (MTT viability, IC50)” value [3] was “significantly and selectively more sensitive”. For the same compound, the “GPX4 expression after treatment (Western blot)” value [4] was “depletes GPX4 expression”.
For `CC(=O)OC[C@H]1O[C@@H]([S-])[C@H](OC(C)=O)[C@@H](OC(C)=O)[C@@H]1OC(C)=O.CCP(CC)CC.[Au+]` [auranofin, reference compound], the “rescue of cell viability … (Fer-1)” value [2] was “can rescue the cell viability”, the “rescue of cell viability by cysteine” value [2] was “can rescue the cell viability” and the “rescue of cell viability … (NAC)” value [2] was “can rescue the cell viability”. The “sensitivity of KRAS-WT lung cancer cells compared with KM lung cancer cells (MTT viability, IC50)” value [3] was “significantly and selectively more sensitive”.
